We go through 21 molecules from patent US9156796B2, “Benzoimidazole-carboxylic acid amide derivatives as APJ receptor modulators” (SANOFI, priority 2013, dated 2015).

The experiment deals with T1, human apelin receptor (Homo sapiens, UniProt P35414).
T1 construct: expressed in transfected cells
T1 sequence (P35414 1-380): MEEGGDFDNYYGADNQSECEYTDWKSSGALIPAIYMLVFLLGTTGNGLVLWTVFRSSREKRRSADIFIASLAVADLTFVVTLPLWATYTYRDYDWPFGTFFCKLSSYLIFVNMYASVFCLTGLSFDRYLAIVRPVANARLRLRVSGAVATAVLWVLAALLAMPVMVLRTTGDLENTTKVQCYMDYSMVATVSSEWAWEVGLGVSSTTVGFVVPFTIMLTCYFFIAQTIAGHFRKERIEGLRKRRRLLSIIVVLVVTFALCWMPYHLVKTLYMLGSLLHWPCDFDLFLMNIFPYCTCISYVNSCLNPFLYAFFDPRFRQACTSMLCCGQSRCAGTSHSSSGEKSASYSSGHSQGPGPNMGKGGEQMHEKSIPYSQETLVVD
The experiment in a line: Determination of agonism on the human apelin receptor by a calcium fluorescence assay (FLIPR). In kind it is cell-based. Conditions: HEK293 cells stably transfected with human apelin receptor and Giaq protein, Fluo-4 calcium fluorescence, read-out: EC50 (APJ agonism). The gist of the method: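 HEK293 cells stably co-expressing human apelin receptor and promiscuous Giaq, loaded 1 h at 37 °C with Fluo-4 (4 μM) in probenecid-containing Hepes buffer, pH 7.4. Compounds, at least 7 concentrations in triplicate, added in FLIPR Tetra; peak calcium fluorescence normalized to 1 μM apelin-13 as 100% to derive EC50.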

Take `CCC(CC)n1c(Cc2cccs2)nc2cc(C(=O)N[C@@H](CC(C)C)C(=O)NC(C)CC(C)C)ccc21` (stereo partly drawn) [Example 232, 1-(1-Ethyl-propyl)-2-thiophen-2-ylmethyl-1H-benzoimidazole-5-carboxylic acid [(S)-1-(1,3-dimethyl-butylcarbamoyl)-3-methyl-butyl]-amide]: the EC50 was found to be 2920 nM.

For the molecule `CCC(CC)n1c(Cc2cccs2)nc2cc(C(=O)N[C@@H](CC(C)C)C(=O)N3CCN(C4CCCCC4)CC3)ccc21` [Example 318, 1-(1-Ethyl-propyl)-2-thiophen-2-ylmethyl-1H-benzoimidazole-5-carboxylic acid [(S)-1-(4-cyclohexyl-piperazine-1-carbonyl)-3-methyl-butyl]-amide], the EC50 is 2860 nM.

Consider `CCC(CC)n1c(Cc2cccs2)nc2cc(C(=O)NC(CC3CCCCCC3)C(=O)O)ccc21` (single isomer, unassigned) [Example 449], for which the concentration for a half-maximal effect (EC50) is 853 nM.

`CCC(CC)n1c(Cc2cccs2)nc2cc(C(=O)N[C@@H](CC(C)C)C(=O)NCCCN3CCS(=O)(=O)CC3)ccc21` [Example 342, 1-(1-Ethyl-propyl)-2-thiophen-2-ylmethyl-1H-benzoimidazole-5-carboxylic acid {(S)-1-[3-(1,1-dioxo-1lambda6-thiomorpholin-4-yl)-propylcarbamoyl]-3-methyl-butyl}-amide]: the EC50 worked out at 999 nM.

As for `CCC[C@H](NC(=O)c1ccc2c(c1)nc(Cc1cccs1)n2[C@@H]1CCCC[C@H]1C)C(=O)O` [Example 91, (S)-2-{[1-((1R,2R)-2-Methyl-cyclohexyl)-2-thiophen-2-ylmethyl-1H-benzoimidazole-5-carbonyl]-amino}-pentanoic acid], the EC50 came out at 137 nM.

Turning to `CCC(CC)n1c(Cc2cccs2)nc2cc(C(=O)N[C@@H](CC(C)C)C(=O)NCCCOC(C)C)ccc21` [Example 358, 1-(1-Ethyl-propyl)-2-thiophen-2-ylmethyl-1H-benzoimidazole-5-carboxylic acid [(S)-1-(3-isopropoxy-propylcarbamoyl)-3-methyl-butyl]-amide], the 50% effective concentration (EC50) worked out at 2570 nM.

As for `CCC(CC)n1c(Cc2cccs2)nc2cc(C(=O)N[C@H](CC(=N)NO)CC(C)C)ccc21` [Example 473, 1-(1-Ethyl-propyl)-2-thiophen-2-ylmethyl-1H-benzoimidazole-5-carboxylic acid [(S)-1-(N-hydroxycarbamimidoylmethyl)-3-methyl-butyl]-amide], the EC50 is 173 nM.

Take `CC(C)C[C@H](NC(=O)c1ccc2c(c1)nc(Cc1cccs1)n2[C@@H]1CCCC[C@H]1C)[C@@H](O)CC(=O)O` [Example 78, (3S,4S)-3-Hydroxy-6-methyl-4-{[1-((1R,2R)-2-methyl-cyclohexyl)-2-thiophen-2-ylmethyl-1H-benzoimidazole-5-carbonyl]-amino}-heptanoic acid]: the EC50 is 101 nM.

Consider `CCC[C@H](CO)NC(=O)c1ccc2c(c1)nc(CC1CCCC1)n2C(CC)CC` [Example 185, 2-Cyclopentylmethyl-1-(1-ethyl-propyl)-1H-benzoimidazole-5-carboxylic acid ((R)-1-hydroxymethyl-butyl)-amide], for which the EC50 is 14100 nM.

In the case of `CCC(CC)n1c(Cc2cccs2)nc2cc(C(=O)N[C@@H](CC(C)C)C(=O)NCc3cccc(OC)c3)ccc21` [Example 364, 1-(1-Ethyl-propyl)-2-thiophen-2-ylmethyl-1H-benzoimidazole-5-carboxylic acid [(S)-1-(3-methoxy-benzylcarbamoyl)-3-methyl-butyl]-amide], the EC50 amounted to 13500 nM.

`CCC(CC)n1c(Cc2cccs2)nc2cc(C(=O)N[C@@H](CC(C)C)C(=O)NC3CCN(c4ccccc4)CC3)ccc21` [Example 317, 1-(1-Ethyl-propyl)-2-thiophen-2-ylmethyl-1H-benzoimidazole-5-carboxylic acid [(S)-3-methyl-1-(1-phenyl-piperidin-4-ylcarbamoyl)-butyl]-amide]: the concentration for a half-maximal effect (EC50) is 14000 nM.

In the case of `CCC(CC)n1c(Cc2cccs2)nc2cc(C(=O)N[C@@H](CC(C)C)C(=O)NCC3CCOCC3)ccc21` [Example 369, 1-(1-Ethyl-propyl)-2-thiophen-2-ylmethyl-1H-benzoimidazole-5-carboxylic acid {(S)-3-methyl-1-[(tetrahydro-pyran-4-ylmethyl)-carbamoyl]-butyl}-amide], the 50% effective concentration (EC50) came out at 2210 nM.

Consider `CCCN1CCC(NC(=O)[C@H](CC(C)C)NC(=O)c2ccc3c(c2)nc(Cc2cccs2)n3C(CC)CC)CC1` [Example 285, 1-(1-Ethyl-propyl)-2-thiophen-2-ylmethyl-1H-benzoimidazole-5-carboxylic acid [(S)-3-methyl-1-(1-propyl-piperidin-4-ylcarbamoyl)-butyl]-amide], for which the EC50 was 295 nM.

On to `CCC(CC)n1c(Cc2cccs2)nc2cc(C(=O)NC3(C(=O)O)CCCCCC3)ccc21` [Example 1, 1-{[1-(1-Ethyl-propyl)-2-thiophen-2-ylmethyl-1H-benzoimidazole-5-carbonyl]-amino}-cycloheptanecarboxylic acid], for which the EC50 was 359 nM.

`CCC(CC)n1c(Cc2cccs2)nc2cc(C(=O)N[C@@H](CO)C3CCCCC3)ccc21` [Example 203, 1-(1-Ethyl-propyl)-2-thiophen-2-ylmethyl-1H-benzoimidazole-5-carboxylic acid ((R)-1-cyclohexyl-2-hydroxy-ethyl)-amide]: the EC50 turned out to be 24700 nM.

Turning to `CCC(CC)n1c(Cc2cccs2)nc2cc(C(=O)NC(CC(C)C)C(C)(C)C(=O)O)ccc21` (single isomer, unassigned) [Example 464], the 50% effective concentration (EC50) is 126 nM.

As for `CCC(CC)n1c(Cc2cccs2)nc2cc(C(=O)N[C@@H](CC(C)C)C(=O)N3CCC(N4CCCC(C)C4)CC3)ccc21` (stereo partly drawn) [Example 281, 1-(1-Ethyl-propyl)-2-thiophen-2-ylmethyl-1H-benzoimidazole-5-carboxylic acid [(S)-3-methyl-1-(3-methyl-[1,4′]bipiperidinyl-1′-carbonyl)-butyl]-amide], the EC50 worked out at 1210 nM.

For `CCC(CC)n1c(Cc2cccs2)nc2cc(C(=O)N[C@@H](CC(C)C)C(=O)NCc3ccc4c(c3)OCO4)ccc21` [Example 239, 1-(1-Ethyl-propyl)-2-thiophen-2-ylmethyl-1H-benzoimidazole-5-carboxylic acid {(S)-1-[(benzo[1,3]dioxol-5-ylmethyl)-carbamoyl]-3-methyl-butyl}-amide], the concentration for a half-maximal effect (EC50) turned out to be 5590 nM.

On to `CCC(C)Cn1c(CC2CCCC2)nc2cc(C(=O)N[C@H](CC(=O)O)CC(C)C)ccc21` (stereo partly drawn) [Example 159, (S)-3-{[2-Cyclopentylmethyl-1-(2-methyl-butyl)-1H-benzoimidazole-5-carbonyl]-amino}-5-methyl-hexanoic acid], for which the EC50 was found to be 15000 nM.

Turning to `CCCCN1CCC(CNC(=O)[C@H](CC(C)C)NC(=O)c2ccc3c(c2)nc(Cc2cccs2)n3C(CC)CC)CC1` [Example 331, 1-(1-Ethyl-propyl)-2-thiophen-2-ylmethyl-1H-benzoimidazole-5-carboxylic acid {(S)-1-[(1-butyl-piperidin-4-ylmethyl)-carbamoyl]-3-methyl-butyl}-amide], the EC50 came to 267 nM.

Regarding `CCC(CC)n1c(Cc2cccs2)nc2cc(C(=O)N[C@@H](CC(C)C)C(=O)N3CCC(OC)CC3)ccc21` [Example 373, 1-(1-Ethyl-propyl)-2-thiophen-2-ylmethyl-1H-benzoimidazole-5-carboxylic acid [(S)-1-(4-methoxy-piperidine-1-carbonyl)-3-methyl-butyl]-amide], the EC50 was found to be 1840 nM.
